Patent US5538985A, “Pyrrolidinone derivatives” (Mitsui Toatsu Chemicals, Inc., priority 1994, dated 1996)

molecular target: T1, α1 receptor (Rattus norvegicus, UniProt Q9R0C9); test: radioreceptor assay (α1 [sic] receptor) with 3H-(+)pentazocine in rat whole brain homogenate (Pharmacological Test 1); type: binding; settings: 3H-(+)pentazocine 5 nM, rat whole brain except cerebellum and medulla, 2 hours
T1 construct: whole brain of a rat except for the cerebellum and medulla; from tissue; host or cells: rat whole brain except cerebellum and medulla, homogenate
Method: By modifying the Vilner et al. method [B. J. Vilner and W. D. Bowen: Mechanisms for Neuromodulation and neuroprotection? in Multiple Sigma and PCP Receptor Ligands, pp341 (1992) NPP Books], a radioreceptor assay was conducted with respect to the α1 receptor. A homogenate (10 mg/ml) of the whole brain of a rat except for the cerebellum and medulla was incubated together with each test drug and ^3 H-ligand [5 nM of ^3 H-(+)pentazocine (NEN)] for 2 hours. Brain tissue was filtered under suction through a glass fiber filter paper ("GF/B", trade name; manufactured by Whatman) using a cell harvester ("LL-12", trade name; manufactured by Brandel) and was washed twice, each with 3 ml of a buffer solution. The glass fiber filter paper was placed in a vial, to which 3.5 ml of a scintillator ("ACSII" trade name; product of Amersham International plc) were added. After being left for 10 hours, the amount of ^3 H-ligand bound to the receptor was measured by a liquid scintillation counter. Incidentally, (+)-pentazocine (10 μM) was used for the measurement of a blank.
Binding rates of ^3 H-ligand to the receptor at individual concentrations of each test drug were plotted to draw a graph by assuming that the binding rate without addition of the test drug was 100% and that when the blank substance was added was 0%. A concentration of the test drug, which would give a binding rate of 50%, was then determined and recorded as an IC50 value. From the IC50 value, the Ki value was determined in accordance with the following formula: [formula] KD represents the dissociation constant between ^3 H-ligand and the receptor, and was obtained by the Scatchard plotting of the bonding to the receptor when the concentration of ^3 H-ligand was varied.

T1 sequence (Q9R0C9 whole entry): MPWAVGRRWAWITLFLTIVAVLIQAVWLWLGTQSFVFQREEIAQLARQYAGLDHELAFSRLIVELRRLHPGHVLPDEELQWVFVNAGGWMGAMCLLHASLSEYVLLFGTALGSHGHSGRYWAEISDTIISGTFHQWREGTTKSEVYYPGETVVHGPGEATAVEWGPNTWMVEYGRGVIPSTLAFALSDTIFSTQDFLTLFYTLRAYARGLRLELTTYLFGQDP

| Structure (SMILES) | Ki |
| --- | --- |
| CC1CCN(CC2CCN(c3ccc(Cl)c(Cl)c3)C2=O)CC1 (stereo not shown) [Example 33] | 7 nM |
| O=C1C(CN2CCCCC2)CCN1c1cccc(Br)c1 (stereo not shown) [Example 13] | 1.3 nM |
| O=C1C(CN2CCCCCC2)CCN1c1ccc(Cl)cc1 (stereo not shown) [Example 82] | 2 nM |
| O=C1C(CN2CCCCC2)CCN1c1cccc(C(F)(F)F)c1 (stereo not shown) [Example 20] | 3.5 nM |
| COc1cccc(N2CCC(CN3CCC(C)CC3)C2=O)c1 (stereo not shown) [Example 43] | 3.6 nM |
| O=C1C(CN2CCCCC2)CCN1c1ccc(C(F)(F)F)cc1 (stereo not shown) [Example 74] | 4.4 nM |
| CC1CCN(CC2(C)CCN(c3ccc(Cl)cc3)C2=O)CC1 (stereo not shown) [Example 49] | 3 nM |
| O=C1C(CN2CCCCCCC2)CCN1c1ccc(Cl)c(Cl)c1 (stereo not shown) [Example 31] | 1.2 nM |
| CCC1CCN(CC2CCN(c3ccc(Cl)cc3)C2=O)CC1 (stereo not shown) [Example 29] | 3.8 nM |
| O=C1C(CN2CCCCCC2)CCN1c1cccc(C(F)(F)F)c1 (stereo not shown) [Example 3] | 3.2 nM |
| O=C1C(CN2CCCCCC2)CCN1c1ccc(Cl)cc1 (single isomer, unassigned; (-)) [Example 93 (-) form, (-) 1-(4-Chlorophenyl)-3-(hexahydro-1H-azepin-1-ylmethyl)-2-pyrrolidinone] | 1.5 nM |
| O=C1C(CN2CCCCC2)CCN1c1ccc(Cl)c(Cl)c1 (stereo not shown) [Example 2] | 2.8 nM |
| O=C1C(CN2CCCCCC2)CCN1c1ccc(Cl)cc1 (stereo not shown) [Example 1] | 2.7 nM |
| COC1CCN(CC2CCN(c3ccc(Cl)cc3)C2=O)CC1 (stereo not shown) [Example 75] | 8 nM |
| COc1cccc(N2CCC(CN3CCCCCC3)C2=O)c1 (stereo not shown) [Example 44] | 5.9 nM |
| CC1CCN(CC2CCN(c3ccc(C(C)(C)C)cc3)C2=O)CC1 (stereo not shown) [Example 27] | 2.3 nM |
| O=C1C(CN2CCCCC2)CCN1c1cccc(Cl)c1 (stereo not shown) [Example 12] | 4.7 nM |
| CC1CCN(CC2CCN(c3cccc(C(F)(F)F)c3)C2=O)CC1 (stereo not shown) [Example 11] | 2.1 nM |

test system: mAMP-induced hyperkinesia; test: inhibition of methamphetamine (mAMP)-induced hyperkinesia in mice (Pharmacological Test 2); type: in vivo, mice (ddy male); settings: Mus musculus, sc, 0.5 h; test drug 10 mg/kg peritoneally; methamphetamine 1.5 mg/kg subcutaneously; motion measured for 30 minutes; read-out: Inhibition rate of mAMP-induced hyperkinesia (%)
Method: Using mice, antipsychotic activities were investigated in terms of hyperkinesia induced by methamphetamine. For the experiment, ten 5 weeks-old ddy male mice (NIHON S.L.C K.K.) were used per each group. Immediately after each mouse was peritoneally administered at 10 mg/kg with the corresponding test drug, the mouse was placed in a photocell cage for measurement. The amount of motion was measured for 30 minutes (the first measurement: this was recorded as the action of the test drug for the active movement). Thereafter, the mouse was once taken out of the cage and subcutaneously administered at 1.5 mg/kg with methamphetamine. The mouse was then returned to the same cage and the amount of motion was measured for 30 minutes. An average amount of motion of each group was determined based on the amounts of motion after the administration of methamphetamine (mAMP) as obtained by the second measurement, and the inhibition rate (%) of hyperkinesia was calculated in accordance with the following formula: [formula]
The group to which the test drug was administered: the test drug+methamphetamine
Control group: vehicle+methamphetamine
Normal group: vehicle+saline

| Structure (SMILES) | inhibition in vivo at 10 mg/kg |
| --- | --- |
| CC(=O)C1CCN(CC2CCN(c3ccc(Cl)cc3)C2=O)CC1 (stereo not shown) [Example 45] | 51% |
| CC1CCN(CC2CCN(c3ccc(Cl)c(Cl)c3)C2=O)CC1 (stereo not shown) [Example 33] | 53% |
| CC1CCN(CC2CC(=O)N(c3ccc(Cl)cc3)C2)CC1 (stereo not shown) [Example 81] | 53% |
| O=C1C(CN2CCC(O)CC2)CCN1c1ccc(Cl)cc1 (stereo not shown) [Example 40] | 73% |
| O=C1C(CN2CCCCCC2)CCN1c1ccc(C2CCCCC2)cc1 (stereo not shown) [Example 64] | 57% |
| O=C1C(CN2CCCCCC2)CCN1c1ccc(F)cc1 (stereo not shown) [Example 53] | 62% |
| CC1CCN(CC2CCN(c3ccc(Cl)cc3)C2=O)CC1 (stereo not shown) [Example 26] | 56% |
| O=C1C(CN2CCCCCC2)CCN1c1ccc(-c2ccccc2)cc1 (stereo not shown) [Example 70] | 66% |
| O=C1C(CN2CCCC2)CCN1c1ccc(Cl)cc1 (stereo not shown) [Example 36] | 56% |
| O=C1C(CN2CCCCCC2)CCN1c1ccc(Cl)cc1 (stereo not shown) [Example 1] | 55% |
| COC1CCN(CC2CCN(c3ccc(Cl)cc3)C2=O)CC1 (stereo not shown) [Example 75] | 66% |
| COc1ccc(N2CCC(CN3CCC(C)CC3)C2=O)cc1 (stereo not shown) [Example 41] | 53% |
| CCc1ccc(N2CC(CN3CCCCC3)CC2=O)cc1 (stereo not shown) [Example 39] | 54% |
| O=C1CC(CN2CCCCC2)CN1c1ccc(F)cc1 (stereo not shown) [Example 37] | 62% |
| CC1CC(C)CN(CC2CCN(c3ccc(Cl)cc3)C2=O)C1 (stereo not shown) [Example 56] | 76% |
| O=C1C(CN2CCCCC2)CCN1c1ccc(Cl)cc1 (stereo not shown) [Example 23] | 54% |
